{
  "source": "patent US6355799B1",
  "about": "“Substituted benzene compounds, process for their preparation, and herbicidal and defoliant compositions containing them” (ISK Americas Incorporated, priority 1997, dated 2002)",
  "assay_type_in_all_cases": "in vivo",
  "key": {"[1]": {"tested_on": "upland rice (Oryza sp., var. Tebonnet, RICE)", "experiment": "Pre-emerge test, crop safety", "conditions": "crop damage rating 0-100, 14 days after application", "in_short": "(§1)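 Rating: 0–100 visual injury, 14 DAA. Application: acetone, 187 l/ha, 15–1000 g ai/ha, flat-fan track sprayer with nozzle 40–45 cm above soil or canopy. Post-emerge runs used 0.25% v/v surfactant on 2–3 leaf plants.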"}, "[2]": {"tested_on": "field corn (Zea mays L., var. Dekalb 535, CORN)", "experiment": "Pre-emerge test, crop safety", "conditions": "crop damage rating 0-100, 14 days after application", "in_short": "as §1"}, "[3]": {"tested_on": "ivyleaf morningglory (Ipomoea hederacea, IPOHE)", "experiment": "Pre-emerge test, greenhouse herbicide activity screening", "conditions": "phytotoxicity rating 0-100, 14 days after application", "source_text": "(§2) A standard greenhouse herbicide activity screening system was used to evaluate the herbicidal efficacy and crop safety of these test compounds. Seven broadleaf weed species including redroot pigweed (Amaranthus retroflexus, AMARE, velvetleaf (Abutilon theophrasti, ABUTH), sicklepod (Cassia obtusifolia, CASOB), ivyleaf morningglory (Ipomoea hederacea, IPOHE), lambsquarters (Chenopodium album, CHEAL), common ragweed (Ambrosia artemisizfolia L., AMBEL), and cocklebur (Xanthium strumarium, XANST) were used as test species. Four grass weed species including green foxtail (Setaria viridis, SETVI), barnyardgrass (Echinochloa crus-galli, ECHCG), johnsongrass (Sorghum halepense, SORHA), and large crabgrass (Digitaria sanguinalis, DIGSA) were also used. In addition, three crop species, field corn (Zea mays L., var. Dekalb 535, CORN), soybean (Glycine max L., var. Pella 86, SOY), and is upland rice (Oryza sp., var. Tebonnet, RICE) were included.\n(§3) All plants were grown in 10 cm square plastic pots which were filled with a sandy loam soil mix. For pre-emerge tests, seeds were planted one day prior to application of the test compounds. For post-emerge tests, seeds were planted 8-21 days prior to the test to allow emergence and good foliage development prior to application of the test substances. At the time of the post-emerge application, plants of all species were usually at the 2-3 leaf stage of development.\n(§4) All test compounds Were dissolved in acetone and applied to the test units in a volume of 187 l /ha. Test materials were applied at rates ranging from 15 g ai/ha to 1000 g ai/ha using a track sprayer equipped with a TJ8001E even flow flat fan spray nozzle. Plants were arranged on a shelf so that the top of the canopy (post-emerge) or top of the soil surface (pre-emerge) was 40-45 cm below the nozzle. Pressurized air was used to force the test solution through the nozzle as it was mechanically advanced (via electrically driven chain drive) over the top of all test plants/pots. This application simulates a typical commercial field herbicide application.\n(§5) In the post-emerge test, a commercial non-ionic surfactant was also included (0.25% v/v) to enhance wetting of the leaf surfaces of target plants. Immediately after application, test units of the pre-emerge applications were watered at the soil surface to incorporate the test materials. Subsequently, these test units were bottom-watered. Post-emerge test units were always bottom-watered.\n(§6) At 14 days after application of the test materials, phytotoxicity ratings were recorded. A rating scale of 0-100 was used as previously described in Research Methods in Weed Science, 2nd edition, B. Truelove, Ed., Southern Weed Science Society, Auburn University, Auburn, Ala. 1977. Briefly, “0” corresponds to no damage and “100” corresponds to complete death of all plants in the test unit. This scale was used both to determine efficacy against weed species and damage to crop species. Herbicide activity data for various compounds of this invention, which are shown by compound No. in Tables 1-8, are shown in Tables 11 and 12."}, "[4]": {"tested_on": "lambsquarters (Chenopodium album, CHEAL)", "experiment": "Pre-emerge test, greenhouse herbicide activity screening", "conditions": "phytotoxicity rating 0-100, 14 days after application", "source_text": "as §2, §3, §4, §5, §6"}, "[5]": {"tested_on": "green foxtail (Setaria viridis, SETVI)", "experiment": "Pre-emerge test, greenhouse herbicide activity screening", "conditions": "phytotoxicity rating 0-100, 14 days after application", "source_text": "as §2, §3, §4, §5, §6"}, "[6]": {"tested_on": "velvetleaf (Abutilon theophrasti, ABUTH)", "experiment": "Pre-emerge test, greenhouse herbicide activity screening", "conditions": "phytotoxicity rating 0-100, 14 days after application", "source_text": "as §2, §3, §4, §5, §6"}, "[7]": {"tested_on": "barnyardgrass (Echinochloa crus-galli, ECHCG)", "experiment": "Pre-emerge test, greenhouse herbicide activity screening", "conditions": "phytotoxicity rating 0-100, 14 days after application", "source_text": "as §2, §3, §4, §5, §6"}, "[8]": {"tested_on": "sicklepod (Cassia obtusifolia, CASOB)", "experiment": "Pre-emerge test, greenhouse herbicide activity screening", "conditions": "phytotoxicity rating 0-100, 14 days after application", "source_text": "as §2, §3, §4, §5, §6"}, "[9]": {"tested_on": "large crabgrass (Digitaria sanguinalis, DIGSA)", "experiment": "Pre-emerge test, greenhouse herbicide activity screening", "conditions": "phytotoxicity rating 0-100, 14 days after application", "source_text": "as §2, §3, §4, §5, §6"}, "[10]": {"tested_on": "upland rice (Oryza sp., var. Tebonnet, RICE)", "experiment": "Post-emerge test, crop safety", "conditions": "post-emerge, 14 days after application, rating scale 0-100", "in_short": "(§7)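 Compounds in acetone were track-sprayed at 187 l/ha, 15–1000 g ai/ha, onto sandy loam pots. Pre-emerge seeds were sown one day before spraying, with surface watering afterwards. Post-emerge plants were at the 2–3 leaf stage and sprayed with 0.25% v/v non-ionic surfactant. Injury was rated 0–100 at 14 days.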"}, "[11]": {"tested_on": "field corn (Zea mays L., var. Dekalb 535, CORN)", "experiment": "Post-emerge test, crop safety", "conditions": "post-emerge, 14 days after application, rating scale 0-100", "in_short": "as §7"}, "[12]": {"tested_on": "redroot pigweed (Amaranthus retroflexus, AMARE)", "experiment": "Pre-emerge test, greenhouse herbicide activity screening", "conditions": "phytotoxicity rating 0-100, 14 days after application", "in_short": "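Plants grown in 10 cm pots of sandy loam mix received acetone-dissolved compounds through a moving flat-fan nozzle. Doses ranged from 15 to 1000 g ai/ha. Pre-emerge pots were seeded one day earlier, post-emerge pots 8–21 days earlier. Fourteen days on, each pot was graded 0–100 for damage.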"}, "[13]": {"tested_on": "ivyleaf morningglory (Ipomoea hederacea, IPOHE)", "experiment": "Post-emerge test, greenhouse herbicide activity screening", "conditions": "post-emerge, 14 days after application, rating scale 0-100", "source_text": "as §2, §3, §4, §5, §6"}, "[14]": {"tested_on": "lambsquarters (Chenopodium album, CHEAL)", "experiment": "Post-emerge test, greenhouse herbicide activity screening", "conditions": "post-emerge, 14 days after application, rating scale 0-100", "source_text": "as §2, §3, §4, §5, §6"}, "[15]": {"tested_on": "green foxtail (Setaria viridis, SETVI)", "experiment": "Post-emerge test, greenhouse herbicide activity screening", "conditions": "post-emerge, 14 days after application, rating scale 0-100", "source_text": "as §2, §3, §4, §5, §6"}, "[16]": {"tested_on": "velvetleaf (Abutilon theophrasti, ABUTH)", "experiment": "Post-emerge test, greenhouse herbicide activity screening", "conditions": "post-emerge, 14 days after application, rating scale 0-100", "source_text": "as §2, §3, §4, §5, §6"}, "[17]": {"tested_on": "barnyardgrass (Echinochloa crus-galli, ECHCG)", "experiment": "Post-emerge test, greenhouse herbicide activity screening", "conditions": "post-emerge, 14 days after application, rating scale 0-100", "source_text": "as §2, §3, §4, §5, §6"}, "[18]": {"tested_on": "redroot pigweed (Amaranthus retroflexus, AMARE)", "experiment": "Post-emerge test, greenhouse herbicide activity screening", "conditions": "post-emerge, 14 days after application", "source_text": "as §2, §3, §4, §5, §6"}, "[19]": {"tested_on": "sicklepod (Cassia obtusifolia, CASOB)", "experiment": "Post-emerge test, greenhouse herbicide activity screening", "conditions": "post-emerge, 14 days after application, rating scale 0-100", "source_text": "as §2, §3, §4, §5, §6"}, "[20]": {"tested_on": "large crabgrass (Digitaria sanguinalis, DIGSA)", "experiment": "Post-emerge test, greenhouse herbicide activity screening", "conditions": "post-emerge, 14 days after application, rating scale 0-100", "source_text": "as §2, §3, §4, §5, §6"}},
  "data": [
    {"smiles": "COc1c(Cl)ccc(-n2c(=O)cc(C(F)(F)F)n(C)c2=O)c1NC(=O)c1ccc2ccccc2c1", "note": "[2-202]", "values": [
      {"measurement": "Pre-emerge Herbicidal Activity RICE", "setting": "[1]; 63 g ai/ha", "result": 40},
      {"measurement": "Pre-emerge Herbicidal Activity RICE", "setting": "[1]; 250 g ai/ha", "result": 90},
      {"measurement": "Pre-emerge Herbicidal Activity CORN", "setting": "[2]; 63 g ai/ha", "result": 0},
      {"measurement": "Pre-emerge Herbicidal Activity CORN", "setting": "[2]; 250 g ai/ha", "result": 50},
      {"measurement": "Pre-emerge Herbicidal Activity IPOHE", "setting": "[3]; 63 g ai/ha", "result": 100},
      {"measurement": "Pre-emerge Herbicidal Activity IPOHE", "setting": "[3]; 250 g ai/ha", "result": 100},
      {"measurement": "Pre-emerge Herbicidal Activity CHEAL", "setting": "[4]; 63 g ai/ha", "result": 100},
      {"measurement": "Pre-emerge Herbicidal Activity CHEAL", "setting": "[4]; 250 g ai/ha", "result": 100},
      {"measurement": "Pre-emerge Herbicidal Activity SETVI", "setting": "[5]; 63 g ai/ha", "result": 40},
      {"measurement": "Pre-emerge Herbicidal Activity SETVI", "setting": "[5]; 250 g ai/ha", "result": 100},
      {"measurement": "Pre-emerge Herbicidal Activity ABUTH", "setting": "[6]; 63 g ai/ha", "result": 100},
      {"measurement": "Pre-emerge Herbicidal Activity ABUTH", "setting": "[6]; 250 g ai/ha", "result": 100},
      {"measurement": "Pre-emerge Herbicidal Activity ECHCG", "setting": "[7]; 63 g ai/ha", "result": 90},
      {"measurement": "Pre-emerge Herbicidal Activity ECHCG", "setting": "[7]; 250 g ai/ha", "result": 100},
      {"measurement": "Pre-emerge Herbicidal Activity CASOB", "setting": "[8]; 63 g ai/ha", "result": 30},
      {"measurement": "Pre-emerge Herbicidal Activity CASOB", "setting": "[8]; 250 g ai/ha", "result": 80},
      {"measurement": "Pre-emerge Herbicidal Activity DIGSA", "setting": "[9]; 63 g ai/ha", "result": 30},
      {"measurement": "Pre-emerge Herbicidal Activity DIGSA", "setting": "[9]; 250 g ai/ha", "result": 100},
      {"measurement": "phytotoxicity rating RICE (crop damage)", "setting": "[10]; 63 g ai/ha", "result": 20},
      {"measurement": "phytotoxicity rating RICE (crop damage)", "setting": "[10]; 250 g ai/ha", "result": 60},
      {"measurement": "phytotoxicity rating CORN (crop damage)", "setting": "[11]; 63 g ai/ha", "result": 15},
      {"measurement": "phytotoxicity rating CORN (crop damage)", "setting": "[11]; 250 g ai/ha", "result": 30},
      {"measurement": "Pre-emerge Herbicidal Activity AMARE", "setting": "[12]; 63 g ai/ha", "result": 100},
      {"measurement": "Pre-emerge Herbicidal Activity AMARE", "setting": "[12]; 250 g ai/ha", "result": 100},
      {"measurement": "phytotoxicity rating IPOHE", "setting": "[13]; 63 g ai/ha", "result": 100},
      {"measurement": "phytotoxicity rating IPOHE", "setting": "[13]; 250 g ai/ha", "result": 100},
      {"measurement": "phytotoxicity rating CHEAL", "setting": "[14]; 63 g ai/ha", "result": 100},
      {"measurement": "phytotoxicity rating CHEAL", "setting": "[14]; 250 g ai/ha", "result": 100},
      {"measurement": "phytotoxicity rating SETVI", "setting": "[15]; 63 g ai/ha", "result": 30},
      {"measurement": "phytotoxicity rating SETVI", "setting": "[15]; 250 g ai/ha", "result": 40},
      {"measurement": "phytotoxicity rating ABUTH", "setting": "[16]; 63 g ai/ha", "result": 100},
      {"measurement": "phytotoxicity rating ABUTH", "setting": "[16]; 250 g ai/ha", "result": 100},
      {"measurement": "phytotoxicity rating ECHCG", "setting": "[17]; 63 g ai/ha", "result": 10},
      {"measurement": "phytotoxicity rating ECHCG", "setting": "[17]; 250 g ai/ha", "result": 40},
      {"measurement": "phytotoxicity rating AMARE", "setting": "[18]; 63 g ai/ha, rating scale 0-100 (0 no damage, 100 complete death)", "result": 100},
      {"measurement": "phytotoxicity rating AMARE", "setting": "[18]; 250 g ai/ha, rating scale 0-100", "result": 100},
      {"measurement": "phytotoxicity rating CASOB", "setting": "[19]; 63 g ai/ha", "result": 100},
      {"measurement": "phytotoxicity rating CASOB", "setting": "[19]; 250 g ai/ha", "result": 100},
      {"measurement": "phytotoxicity rating DIGSA", "setting": "[20]; 63 g ai/ha", "result": 0},
      {"measurement": "phytotoxicity rating DIGSA", "setting": "[20]; 250 g ai/ha", "result": 30}
    ]}
  ]
}
